Assay results: PubChem BioAssay (NCI)
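Step 1: Grow cells in 96-well plates. Step 2: Expose to compound for 48 hours at 5 concentrations. Step 3: Interpolate endpoints linearly; if unreached, use highest concentration. Definition used: TGI = concentration required for complete inhibition of growth.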

Tests used:
Test in all cases: inhibition of tumour cell growth, NCI panel, 48 h
IGROV1 ovarian = system: IGROV1 ovarian
PC-3 prostate = system: PC-3 prostate
786-0 renal = system: 786-0 renal
MDA-MB-231 breast = system: MDA-MB-231 breast
KM12 colon = system: KM12 colon
COLO 205 colon = system: COLO 205 colon
HCT-116 colon = system: HCT-116 colon
T-47D breast = system: T-47D breast
NCI-H23 lung = system: NCI-H23 lung
MDA-MB-435 = system: MDA-MB-435
NCI/ADR-RES ovarian = system: NCI/ADR-RES ovarian
ACHN renal = system: ACHN renal
SK-MEL-5 melanoma = system: SK-MEL-5 melanoma
OVCAR-8 ovarian = system: OVCAR-8 ovarian
HOP-62 NSCLC = system: HOP-62 NSCLC
M14 melanoma = system: M14 melanoma
HCT-15 colon = system: HCT-15 colon
HS 578T breast = system: HS 578T breast
A498 renal = system: A498 renal
HT29 colon = system: HT29 colon
UACC-257 melanoma = system: UACC-257 melanoma
A549 NSCLC = system: A549 NSCLC
MALME-3M melanoma = system: MALME-3M melanoma
MOLT-4 leukemia = system: MOLT-4 leukemia
OVCAR-5 ovarian = system: OVCAR-5 ovarian
SNB-19 CNS = system: SNB-19 CNS
SW-620 colon = system: SW-620 colon
NCI-H522 lung = system: NCI-H522 lung
CCRF-CEM leukemia = system: CCRF-CEM leukemia
K-562 leukemia = system: K-562 leukemia
UO-31 renal = system: UO-31 renal
MCF7 breast = system: MCF7 breast
HL-60(TB) leukemia = system: HL-60(TB) leukemia
SF-268 CNS = system: SF-268 CNS
U251 CNS = system: U251 CNS
DU-145 prostate = system: DU-145 prostate
HOP-92 NSCLC = system: HOP-92 NSCLC
UACC-62 melanoma = system: UACC-62 melanoma
TK-10 renal = system: TK-10 renal
SNB-75 CNS = system: SNB-75 CNS
EKVX NSCLC = system: EKVX NSCLC
SK-MEL-28 melanoma = system: SK-MEL-28 melanoma
LOX IMVI melanoma = system: LOX IMVI melanoma
MDA-N = system: MDA-N
NCI-H226 lung = system: NCI-H226 lung
SN12C renal = system: SN12C renal
OVCAR-3 ovarian = system: OVCAR-3 ovarian
NCI-H460 lung = system: NCI-H460 lung
SR leukemia = system: SR leukemia
SK-OV-3 ovarian = system: SK-OV-3 ovarian
CAKI-1 renal = system: CAKI-1 renal
BT-549 breast = system: BT-549 breast
OVCAR-4 ovarian = system: OVCAR-4 ovarian
HCC-2998 colon = system: HCC-2998 colon
RXF 393 renal = system: RXF 393 renal
SK-MEL-2 melanoma = system: SK-MEL-2 melanoma
SF-539 CNS = system: SF-539 CNS
RPMI-8226 leukemia = system: RPMI-8226 leukemia
SF-295 CNS = system: SF-295 CNS

## CCCCCCCCCCCCCCCCOCC(Cl)CP(=O)(O)OP(=O)(O)OCC1OC(n2cnc3c(N)ncnc32)C(O)C1O (stereo not drawn)
IGROV1 ovarian
  TGI: > 100 µM
PC-3 prostate
  TGI: > 100 µM
786-0 renal
  TGI: > 100 µM
MDA-MB-231 breast
  TGI: > 100 µM
KM12 colon
  TGI: > 100 µM
COLO 205 colon
  TGI: > 100 µM
HCT-116 colon
  TGI: > 100 µM
T-47D breast
  TGI: > 100 µM
NCI-H23 lung
  TGI: > 100 µM
MDA-MB-435
  TGI: > 100 µM
NCI/ADR-RES ovarian
  TGI: > 100 µM
ACHN renal
  TGI: > 100 µM
SK-MEL-5 melanoma
  TGI: > 100 µM
OVCAR-8 ovarian
  TGI: > 100 µM
HOP-62 NSCLC
  TGI: > 100 µM
M14 melanoma
  TGI: > 100 µM
HCT-15 colon
  TGI: > 100 µM
HS 578T breast
  TGI: > 100 µM
A498 renal
  TGI: > 100 µM
HT29 colon
  TGI: > 100 µM
UACC-257 melanoma
  TGI: > 100 µM
A549 NSCLC
  TGI: > 100 µM
MALME-3M melanoma
  TGI: > 100 µM
MOLT-4 leukemia
  TGI: > 100 µM
OVCAR-5 ovarian
  TGI: > 100 µM
SNB-19 CNS
  TGI: > 100 µM
SW-620 colon
  TGI: > 100 µM
NCI-H522 lung
  TGI: > 100 µM
CCRF-CEM leukemia
  TGI: > 100 µM
K-562 leukemia
  TGI: > 100 µM
UO-31 renal
  TGI: > 100 µM
MCF7 breast
  TGI: > 100 µM
HL-60(TB) leukemia
  TGI: > 100 µM
SF-268 CNS
  TGI: > 100 µM
U251 CNS
  TGI: > 100 µM
DU-145 prostate
  TGI: > 100 µM
HOP-92 NSCLC
  TGI: > 100 µM
UACC-62 melanoma
  TGI: > 100 µM
TK-10 renal
  TGI: > 100 µM
SNB-75 CNS
  TGI: > 100 µM
EKVX NSCLC
  TGI: > 100 µM
SK-MEL-28 melanoma
  TGI: > 100 µM
LOX IMVI melanoma
  TGI: > 100 µM
MDA-N
  TGI: > 100 µM
NCI-H226 lung
  TGI: > 100 µM
SN12C renal
  TGI: > 100 µM
OVCAR-3 ovarian
  TGI: > 100 µM
NCI-H460 lung
  TGI: > 100 µM
SR leukemia
  TGI: > 100 µM
SK-OV-3 ovarian
  TGI: > 100 µM
CAKI-1 renal
  TGI: > 100 µM
BT-549 breast
  TGI: > 100 µM
OVCAR-4 ovarian
  TGI: > 100 µM
HCC-2998 colon
  TGI: > 100 µM
RXF 393 renal
  TGI: > 100 µM
SK-MEL-2 melanoma
  TGI: > 100 µM
SF-539 CNS
  TGI: > 100 µM

## FC(F)(F)c1ccc2c(c1)nc(-c1ccccc1)n2CC1CCCN2CCCCC12 (stereo not drawn)
IGROV1 ovarian
  TGI: 50.4 µM
PC-3 prostate
  TGI: 34.1 µM
786-0 renal
  TGI: 30.7 µM
MDA-MB-231 breast
  TGI: 29.4 µM
KM12 colon
  TGI: 66.5 µM
COLO 205 colon
  TGI: 26.3 µM
HCT-116 colon
  TGI: 30.6 µM
T-47D breast
  TGI: 71.7 µM
MDA-MB-435
  TGI: 42.3 µM
NCI/ADR-RES ovarian
  TGI: 34.3 µM
ACHN renal
  TGI: 56.5 µM
SK-MEL-5 melanoma
  TGI: 28.1 µM
OVCAR-8 ovarian
  TGI: 37.9 µM
HOP-62 NSCLC
  TGI: > 100 µM
M14 melanoma
  TGI: 31.9 µM
HCT-15 colon
  TGI: 64 µM
HS 578T breast
  TGI: 33.9 µM
A498 renal
  TGI: 69.1 µM
HT29 colon
  TGI: 38.5 µM
UACC-257 melanoma
  TGI: 31.8 µM
A549 NSCLC
  TGI: > 100 µM
MALME-3M melanoma
  TGI: 27.2 µM
MOLT-4 leukemia
  TGI: > 100 µM
SNB-19 CNS
  TGI: > 100 µM
SW-620 colon
  TGI: 69.9 µM
NCI-H522 lung
  TGI: 28.7 µM
K-562 leukemia
  TGI: 58.3 µM
UO-31 renal
  TGI: 1.16 µM
MCF7 breast
  TGI: 38.8 µM
HL-60(TB) leukemia
  TGI: 33.8 µM
SF-268 CNS
  TGI: 33.5 µM
U251 CNS
  TGI: 56.2 µM
DU-145 prostate
  TGI: > 100 µM
HOP-92 NSCLC
  TGI: 65.8 µM
UACC-62 melanoma
  TGI: 31.2 µM
TK-10 renal
  TGI: 41.8 µM
SNB-75 CNS
  TGI: 50.8 µM
EKVX NSCLC
  TGI: > 100 µM
SK-MEL-28 melanoma
  TGI: 35.3 µM
LOX IMVI melanoma
  TGI: 29.1 µM
MDA-N
  TGI: 36.2 µM
RPMI-8226 leukemia
  TGI: > 100 µM
NCI-H226 lung
  TGI: 65.9 µM
SN12C renal
  TGI: 45.5 µM
OVCAR-3 ovarian
  TGI: 40.1 µM
NCI-H460 lung
  TGI: 39.3 µM
SR leukemia
  TGI: 49.2 µM
SK-OV-3 ovarian
  TGI: 37.3 µM
CAKI-1 renal
  TGI: > 100 µM
BT-549 breast
  TGI: 34.9 µM
OVCAR-4 ovarian
  TGI: > 100 µM
HCC-2998 colon
  TGI: 32.3 µM
RXF 393 renal
  TGI: 75.5 µM
SK-MEL-2 melanoma
  TGI: 29.3 µM
SF-295 CNS
  TGI: 31.7 µM
SF-539 CNS
  TGI: 31 µM
